Experimental data published in patent publication US8217071B2, “Use of inhibitors of the degradation of p27, in particular Argyrin and derivatives thereof, for the treatment of proliferative diseases” (Helmholtz Zentrum für Infektionsforschung GmbH, priority 2007, dated 2012).
In brackets after ≈: the same amount, converted by molar mass. Entries after “also recorded” stand apart in the source; their conditions may differ. Numbered stars: 1 amine (or outer) side, 2 acyl side, 3 side chain; on linkers, the order of the positions; unused ones are H or OH. Square brackets hold non-standard residues; d marks the D form. Peptide text beside a SMILES is read from it. dAla(ψthiazole) = C[C@@H](N[*:1])c1nc(C(=O)[*:2])cs1; Trp(4-OMe) = COc1cccc2[nH]cc(C[C@H](N)C(=O)O)c12; Dha = C=C(N)C(=O)O; Sar = CNCC(=O)O

Assays:
[1] = test system: HCT116 colon carcinoma xenotransplant tumours; assay: HCT116 xenotransplant tumours in nu/nu mice; type: in vivo, mouse; details: HCT116 derived tumor-xenografts
Experimental: Treatment with Argyrin A or bortezomib was started when these tumours reached a volume of 200 mm3. […] (n=8 Argyrin A, n=8 Bortezomib, n=6 PBS/EtOH) b) The pictures show the macroscopic appearance of a xenotransplant tumour after 10 days of treatment with Argyrin A. Note the large necrotic centre of the explanted tumour. c) After a single injection of Argyrin A (0.15 mg/kg bodyweight) or bortezomib (1.0 mg/kg bodyweight) tumours were explanted at the indicated time points and blood vessels in the tumour tissue were co-stained for CD31 and p27. […] Note the swelling of the endothelial cell (“E”) and the occlusion of the lumen (“L”) by erythrocytes after 90 minutes of Argyrin A treatment. The arrow marks the detachment of endothelial cells after 48 h of Argyrin A treatment. […] Tube length (f) and blood vessel like […] structures were determined using photographs of HUVEC cultures. The micrographs show representative examples of HUVEC cultures under the indicated conditions.
1×10^7 SW480 cells or HCT116 cells (in 100 microliters DMEM medium and 100 microliters matrigel) were s.c. injected into the flanks of NMRI nu/nu mice. Tumours grew for approx. 18 days until they reached appropriate size (200 mm3). Tumour size was measured with a digital calliper and calculated with the help of the following formula: (Length×width2)*π/6. […]

[2] = test system: p27^kip1; assay: p27^kip1 expression time course by western blotting; type: cell-based, human; details: SW480, HCT116 and HeLa cells
Experimental: (§1) The expression levels of p27^kip1 were determined at the indicated timepoints by western blotting and normalized against actin expression which was used as an internal control.
(§2) Immunohistochemical staining of mouse tumour tissue, western Blotting and immunofluorescence experiments were done as previously described (Timmerbeul, I. et al. Testing the importance of p27 degradation by the SCFskp2 pathway in murine models of lung and colon cancer. Proc Natl Acad Sci USA 103, 14009-14 (2006). Kossatz, U. et al. C-terminal phosphorylation controls the stability and function of p27^kip1. Embo J 25, 5159-70 (2006).). The following antibodies were used: p27 (Cat. No. K25020-150; Transduction Labs), p21 (N20; Santa Cruz), p53 (FL-393; Santa Cruz), NfKB (C-20; Santa Cruz), Bax (P-19; Santa Cruz), Alexa fluor 488 (# A11001; Invitrogen), 20S-proteasome subunit beta 2 (Z) (PW9300; Bio-mol, for human cells), 20S-proteasome subunit beta 2 (Z) (PW8145; BIO TREND, for mouse cells); 20S proteasome subunit beta 1(Y) (PW8140; BIO TREND), 20S proteasome subunit beta 5 (PW8895; BIO TREND); PECAM Antibody clone MEC 13.3 (#550274; BD Pharmingen).

[3] = test system: MCF7 (breast cancer); assay: Flow cytometry cell cycle / sub-G1 analysis; type: cell-based, human; details: at ranges of IC50; sub G1 phase fraction
Experimental: as §1
(§3) MTT assays were done as previously described (Sasse, F. et al. Argyrins, immunosuppressive cyclic peptides from myxobacteria. I. Production, isolation, physico-chemical and biological properties. J Antibiot (Tokyo) 55, 543-51 (2002)). TUNEL staining of tissue sections was performed on 10 micrometer sections which were deparafinised and treated as recommended by the manufacturer. (In Situ Cell Death Detection Kit, Fluorescein; ROCHE, Cat #11 684 795 910). Flow cytometric analysis of cultured cells was done using a Becton Dickinson fluorescence cytometer as previously described (Malek, N. P. et al. A mouse knock-in model exposes sequential proteolytic pathways that regulate p27^Kip1 in G1 and S phase. Nature 413, 323-7 (2001)). Analysis of the distribution of cells in the cell cycle and the sub-G1 fraction was done using Cell Quest software. A histone-associated-DNA-fragments ELISA was used to determine the number of apoptotic cells according to manufacturers instructions (Roche #11 774425001).

[4] = test system: CaCo colon carcinoma cell line; assay: Flow cytometry cell cycle / sub-G1 analysis; type: cell-based, human; details: at ranges of IC50; sub G1 phase fraction
Experimental: as §1, §3

[5] = test system: SW480 colon carcinoma cell line; assay: Flow cytometry cell cycle / sub-G1 analysis; type: cell-based, human; details: at ranges of IC50; sub G1 phase fraction
Experimental: as §1, §3

[6] = test system: A549 (lung cancer); assay: Flow cytometry cell cycle / sub-G1 analysis; type: cell-based, human; details: at ranges of IC50
Experimental: as §1, §3

[7] = test system: HeLa (cervix carcinoma); assay: Flow cytometry cell cycle / sub-G1 analysis; type: cell-based, human; details: at ranges of IC50; sub G1 phase fraction
Experimental: as §1, §3

[8] = test system: HCT116 colon carcinoma cells; assay: Flow cytometry cell cycle / sub-G1 analysis; type: cell-based, human; details: at ranges of IC50
Experimental: as §1, §3

[9] = test system: p53, p21, BAX and NfκB; assay: Accumulation of proteasome substrates by western blotting; type: cell-based, human; details: SW480 and HCT116 cell lines
Experimental: as §1, §2

[10] = Body weight and tolerability of treated tumour bearing mice; type: in vivo
[11] = test system: H15 (cervix carcinoma); assay: MIC (visual), serial dilution, H15; type: cell-based, human; details: minimal concentration of a serial dilution exhibiting a visual effect
Excerpt: The following table summarizes the effects of argyrin-derivatives A to H on two cancer cell lines, H15 (cervix carcinoma) and SW-480 (colon cancer). In order to test the efficacy, a p27-GFP-clone was used.

[12] = target: T1, purified human 20S proteasome (Homo sapiens, UniProt P28072+P28074+Q99436); assay: Proteasome assay with purified 20S proteasome, fluorogenic peptide substrates; type: biochemical; details: purified human erythrocyte derived 20S proteasome
T1 construct: using erythrocyte-derived 20S proteasome (Biomol International, #LP PW8720); purchased Biomol International #LP PW8720; host or cells: human erythrocytes
Experimental: as §1
Proteasome assays with purified 20S proteasome were performed as previously described (Lightcap, E. S. et al. Proteasome inhibition measurements: clinical application. Clin Chem 46, 673-83 (2000)) using erythrocyte-derived 20S proteasome (Biomol International, #LP PW8720) and fluorometric substrates Succ-LLVY-AMC, BZ-VGR-AMC and Z-Lle-AMC (Biomol International, LP PW9905) as probes according to the manufacturers instructions. Proteasome extraction from cells and tumour sections was done as previously described (Crawford, L. J. et al. Comparative selectivity and specificity of the proteasome inhibitors BzLLLCOCHO, PS-341, and MG-132. Cancer Res 66, 6379-86 (2006)). Briefly cells (MEF or MCF-7) or tissue sample homogenate (tumour sections) were re-suspended in 1 mL ATP/DTT lysis buffer (10 mmol/L Tris-HCl (pH 7.8), 5 mmol/L ATP, 0.5 mmol/L DTT, 5 mmol/L MgCl2), and incubated on ice for 10 minutes, followed by sonication for 15 seconds. […] Protein concentration of the samples was measured using a coomassie protein assay (Pierce, Rockford, Ill.).

Compound: C=C1NC(=O)[C@@H](C)NC(=O)CNC(=O)[C@H](Cc2c[nH]c3cccc(OC)c23)NC(=O)[C@H](Cc2c[nH]c3ccccc23)NC(=O)c2csc(n2)[C@@H](C)NC(=O)CN(C)C1=O [Argyrin A] (cyclo(W[Trp(4-OMe)]G[dA][Dha][Sar][dAla(ψthiazole)]))
- tumour volume [1]: significant reduction
- cellular p27^kip1 levels [2]: increase
- cellular phenotype [3]: underwent apoptosis
- cellular phenotype [4]: underwent apoptosis
- cellular phenotype [5]: underwent apoptosis
- cellular phenotype [6]: stopped to proliferate
- cellular phenotype [7]: underwent apoptosis
- cellular phenotype [8]: stopped to proliferate
- levels of proteasome substrates p53, p21, BAX and NfκB [9]: accumulated
- discomfort, weight loss, disease / tolerability [10]: very well tolerated; also recorded: did not observe any signs of discomfort, weight loss
- MIC (visual) H15 [11]: 4 µg/mL (≈ 4.85 µM)
- caspase, trypsin and chymotrypsin like proteasome activities [12]: dose dependent inhibition
